{"source": "patent US5026836A", "about": "“6-sulfenamide, 6-sulfinamide and 6-sulfonamide purines, purine nucleosides, purine nucleotides, pharmaceutical compositions, and processes of making” (priority 1988, dated 1991)", "type_in_all_cases": "in vivo, mouse", "key": {"L1210/ARA-C cells": {"test_system": "L1210/ARA-C cells", "test": "Cytosine Arabinoside resistant L1210 cells surviving treatment"}, "L1210/5FU cells": {"test_system": "L1210/5FU cells", "test": "5-Fluorouracil resistant L1210 cells surviving treatment", "experimental": "In Examples G through K Compound 19 was tested against L1210 cell lines which had developed resistance to other known cancer chemotherapeutic agents.\nIn Example J, the results of which are shown in Table 10 below, Compound 19 was tested against 5-Fluorouracil resistant cells."}, "L1210 cells": {"test_system": "L1210 cells", "test": "Life span of BDF1 mice inoculated ip with 10^6 L1210 leukemia cells", "experimental": "As illustrative examples of use of the compounds of the invention the following examples are given. […] These standard tests utilize protocols developed under the auspices of the Developmental Therapeutics Program, Division of Cancer Treatment, National Cancer Institute, Bethesda, Md., U.S.A. Except as otherwise indicated the tests conform to these protocols and are evaluated utilizing criteria defined by the protocols.\nValues below 25% are considered capable of producing effective therapy, those below 10% are considered good and those below 5% are considered very good. This expresses the percent of the cells which survived treatment based upon the original cells in the inoculum. Those tests expressed as increases in life span (% ILS) indicate the increased life span of the drug treated group compared to a control group.\nAs an indicator of reproducible activity, compounds of the invention and other known cancer chemotherapeutic agents were screened against L1210 lymphoid leukemia in vivo utilizing the mouse as a test species. Normal NCI protocols for this test require 10^5 seed cells of the L1210 cell line.\nCytosine Arabinoside must be given every three hours.\nMice were inoculated intraperitoneally on day 0 with a million cells of murine leukemia L1210. Drug was given qd days 1, 4 and 7. Increased life span is the mean increase in the treated group presented as a percentage of the mean life span of control mice.\nMice were inoculated intraperitoneally on day 0 with a million cells of murine leukemia L1210. Drugs were given qd days 1, 3, 5 and 7. Increased life span is presented as a percentage of the mean life span of control mice."}, "[1]": {"settings": "ip 104 mg/kg/inj, qd days 1,4,7"}, "[2]": {"settings": "ip 173 mg/kg/inj, qd days 1,4,7"}, "[3]": {"settings": "ip 37 mg/kg/inj, bid days 1,3,5,7"}, "[4]": {"settings": "ip 62 mg/kg/inj, bid days 1,4,7"}}}
{"smiles": "Nc1nc([S+](N)[O-])c2ncn([C@@H]3O[C@H](CO)[C@@H](O)[C@H]3O)c2n1", "note": "(mixture of isomers) [Compound 19, 2-amino-9-β-D-ribofuranosyl-9H-purine-6-sulfinamide]", "values": [{"measurement": "L1210/ARA-C cells surviving (% of day zero inoculum)", "setting": "L1210/ARA-C cells; [1]", "result": 1.7, "unit": "%"}, {"measurement": "L1210/ARA-C cells surviving (% of day zero inoculum)", "setting": "L1210/ARA-C cells; ip 173 mg/kg/inj, qd day 1", "result": 0.02, "unit": "%"}, {"measurement": "L1210/ARA-C cells surviving (% of day zero inoculum)", "setting": "L1210/ARA-C cells; [2]", "result": 0.6, "unit": "%"}, {"measurement": "efficacy against ARA-C resistant line vs parent", "setting": "L1210/ARA-C cells; mouse, in vivo", "result": "greater efficacy against this resistant cell line than it did to the parent non-drug resistant L1210 cells"}, {"measurement": "L1210/5FU cells surviving (% of day zero inoculum)", "setting": "L1210/5FU cells; ip 62 mg/kg/day, qd days 1-7", "result": 933, "unit": "%"}, {"measurement": "L1210/5FU cells surviving (% of day zero inoculum)", "setting": "L1210/5FU cells; ip 104 mg/kg/day, qd days 1,3,5,7", "result": 525, "unit": "%"}, {"measurement": "L1210/5FU cells surviving (% of day zero inoculum)", "setting": "L1210/5FU cells; ip 104 mg/kg/day, qd days 1-7", "result": 3, "unit": "%"}, {"measurement": "L1210/5FU cells surviving (% of day zero inoculum)", "setting": "L1210/5FU cells; ip 173 mg/kg/day, qd days 1,3,5,7", "result": 13, "unit": "%"}, {"measurement": "activity against 5-Fluorouracil resistant cells", "setting": "L1210/5FU cells; large dosages", "result": "highly active against these resistant cells"}, {"measurement": "Increased life span", "setting": "L1210 cells; 37 mg/kg/inj injected, qd days 1,3,5,7", "result": 74, "unit": "%"}, {"measurement": "Increased life span", "setting": "L1210 cells; 62 mg/kg/inj injected, qd days 1,3,5,7", "result": 123, "unit": "%"}, {"measurement": "Increased life span", "setting": "L1210 cells; 104 mg/kg/inj injected, qd days 1,3,5,7", "result": 136, "unit": "%"}, {"measurement": "Increased life span", "setting": "L1210 cells; 173 mg/kg/inj injected, qd days 1,3,5,7", "result": 189, "unit": "%"}, {"measurement": "dose at which significant activity is indicated", "setting": "L1210 cells; delivered only once on day 1, ip", "result": "about 37 mg per kg"}, {"measurement": "T/C (%)", "setting": "L1210 cells; ip 13 mg/kg, qd day 1", "result": 106, "unit": "%"}, {"measurement": "T/C (%)", "setting": "L1210 cells; ip 22 mg/kg, qd day 1", "result": 106, "unit": "%"}, {"measurement": "Life span (% T/C)", "setting": "L1210 cells; ip 22 mg/kg/inj, bid days 1,3,5,7", "result": 193, "unit": "%"}, {"measurement": "Life span (% T/C)", "setting": "L1210 cells; ip 22 mg/kg/inj, bid days 1,4,7", "result": 161, "unit": "%"}, {"measurement": "Life span (% T/C)", "setting": "L1210 cells; ip 22 mg/kg/inj, bid days 1-7", "result": 200, "unit": "%"}, {"measurement": "T/C (%)", "setting": "L1210 cells; ip 37 mg/kg, qd day 1", "result": 128, "unit": "%"}, {"measurement": "% ILS", "setting": "L1210 cells; [3]", "result": 79, "unit": "%"}, {"measurement": "Life span (% T/C)", "setting": "L1210 cells; [3]", "result": 236, "unit": "%"}, {"measurement": "Life span (% T/C)", "setting": "L1210 cells; ip 37 mg/kg/inj, bid days 1,4,7", "result": 216, "unit": "%"}, {"measurement": "Life span (% T/C)", "setting": "L1210 cells; ip 37 mg/kg/inj, bid days 1-7", "result": 233, "unit": "%"}, {"measurement": "Life span (% T/C)", "setting": "L1210 cells; ip 37 mg/kg/inj, qd days 1,3,5,7", "result": 174, "unit": "%"}, {"measurement": "Increased life span", "setting": "L1210 cells; ip 37 mg/kg/inj, qd days 1,4,7", "result": 54, "unit": "%"}, {"measurement": "Life span (% T/C)", "setting": "L1210 cells; ip 37 mg/kg/inj, qd days 1,4,7", "result": 154, "unit": "%"}, {"measurement": "Life span (% T/C)", "setting": "L1210 cells; ip 37 mg/kg/inj, qd days 1-7", "result": 213, "unit": "%"}, {"measurement": "T/C (%)", "setting": "L1210 cells; ip 62 mg/kg, bid day 1", "result": 184, "unit": "%"}, {"measurement": "T/C (%)", "setting": "L1210 cells; ip 62 mg/kg, qd day 1", "result": 135, "unit": "%"}, {"measurement": "T/C (%)", "setting": "L1210 cells; ip 62 mg/kg, qid day 1", "result": 194, "unit": "%"}, {"measurement": "T/C (%)", "setting": "L1210 cells; ip 62 mg/kg, tid day 1", "result": 183, "unit": "%"}, {"measurement": "Life span (% T/C)", "setting": "L1210 cells; ip 62 mg/kg/inj, bid days 1,3,5,7", "result": 285, "unit": "%"}, {"measurement": "% ILS", "setting": "L1210 cells; [4]", "result": 88, "unit": "%"}, {"measurement": "Life span (% T/C)", "setting": "L1210 cells; [4]", "result": 249, "unit": "%"}, {"measurement": "long term survivors", "setting": "L1210 cells; ip 62 mg/kg/inj, bid days 1-7", "result": 2}, {"measurement": "Life span (% T/C)", "setting": "L1210 cells; ip 62 mg/kg/inj, bid days 1-7, 2 long term survivors not included", "result": 361, "unit": "%"}, {"measurement": "Life span (% T/C)", "setting": "L1210 cells; ip 62 mg/kg/inj, qd days 1,3,5,7", "result": 223, "unit": "%"}, {"measurement": "Increased life span", "setting": "L1210 cells; ip 62 mg/kg/inj, qd days 1,4,7", "result": 93, "unit": "%"}, {"measurement": "Life span (% T/C)", "setting": "L1210 cells; ip 62 mg/kg/inj, qd days 1,4,7", "result": 193, "unit": "%"}, {"measurement": "Life span (% T/C)", "setting": "L1210 cells; ip 62 mg/kg/inj, qd days 1-7", "result": 239, "unit": "%"}, {"measurement": "T/C (%)", "setting": "L1210 cells; ip 104 mg/kg, qd day 1", "result": 151, "unit": "%"}, {"measurement": "Life span (% T/C)", "setting": "L1210 cells; ip 104 mg/kg/inj, bid days 1,4,7, 1 toxic death not included", "result": 311, "unit": "%"}, {"measurement": "Life span (% T/C)", "setting": "L1210 cells; ip 104 mg/kg/inj, qd days 1,3,5,7", "result": 236, "unit": "%"}, {"measurement": "Increased life span", "setting": "L1210 cells; [1]", "result": 130, "unit": "%"}, {"measurement": "Life span (% T/C)", "setting": "L1210 cells; [1]", "result": 230, "unit": "%"}, {"measurement": "long term survivors", "setting": "L1210 cells; ip 104 mg/kg/inj, qd days 1-7", "result": 1}, {"measurement": "Life span (% T/C)", "setting": "L1210 cells; ip 104 mg/kg/inj, qd days 1-7, 1 long term survivor not included", "result": 307, "unit": "%"}, {"measurement": "T/C (%)", "setting": "L1210 cells; ip 173 mg/kg, qd day 1", "result": 167, "unit": "%"}, {"measurement": "Life span (% T/C)", "setting": "L1210 cells; ip 173 mg/kg/inj, qd days 1,3,5,7", "result": 289, "unit": "%"}, {"measurement": "Increased life span", "setting": "L1210 cells; [2]", "result": 169, "unit": "%"}, {"measurement": "Life span (% T/C)", "setting": "L1210 cells; [2]", "result": 269, "unit": "%"}]}
